Measured values: publication PMC3762585 (Chemical & pharmaceutical bulletin, 2012)
Like-named read-outs stand apart in the source and are kept apart here.

Assays:
B16F10 [1] = experiment: MTS viability; conditions: Mus musculus, B16-F10, read-out: Cytotoxicity IC50 B16F10
in vitro = conditions: human
SKMEL-28 [2] = experiment: MTS viability; conditions: Homo sapiens, SK-MEL-28, read-out: Cytotoxicity IC50 SKMEL-28
[3] = tested on: JMAR, MDA-1986, B16F10, SKMEL-28 and MRC-5 cells; experiment: MTS viability; type: cell-based; conditions: for IC50: read-out: IC50 values, range over the cells tested; for anti-proliferative activity (cytotoxic effect): tested with a concentration of 20 μM, all five cell lines
MDA-1986 [4] = experiment: MTS viability; conditions: Homo sapiens, MDA1986, read-out: Cytotoxicity IC50 MDA-1986
B16F10 [5] = tested on: B16F10
MDA-1986 [6] = tested on: MDA-1986
SKMEL-28 [7] = tested on: SKMEL-28
JMAR [8] = tested on: JMAR
JMAR [9] = experiment: MTS viability; conditions: Homo sapiens, read-out: Cytotoxicity IC50 JMAR

| Molecule | IC50 (B16F10 [1]) [nM] | IC50 (in vitro) [nM] | IC50 (SKMEL-28 [2]) [µM] | IC50 [3] [µM] | IC50 (MDA-1986 [4]) [nM] | anti-proliferative activity (cytotoxic effect) [3] | IC50 (B16F10 [5]) [nM] | IC50 (MDA-1986 [6]) [nM] | IC50 (SKMEL-28 [7]) [nM] | IC50 (JMAR [8]) [nM] | IC50 (MRC-5) [nM] | IC50 (JMAR [9]) [nM] |
| --- | --- | --- | --- | --- | --- | --- | --- | --- | --- | --- | --- | --- |
| CC1=C(CO)C(=O)O[C@@H]([C@@H](C)[C@H]2CC[C@H]3[C@@H]4C[C@H]5O[C@]56[C@@H](O)C=CC(=O)[C@]6(C)[C@H]4CC[C@]23C)C1 [Withaferin A 6, withaferin A] | 270 ± 40 | 320 ± 60 | 3.5 ± 0.15 | 0.15 to 12.7 | 860 ± 250 | – | – | – | – | – | – | – |
| 19-hydroxy viscosalactone B [Withalongolide P 2] | – | – | – | – | – | inactive | – | – | – | – | – | – |
| Withalongolide O 4,7-Diacetate [Withalongolide O 4,7-diacetate 1a] | – | – | – | – | – | – | 690 ± 140 | 540 ± 70 | 180 ± 30 | 830 ± 140 | 530 ± 120 | – |
| CC1=C(C)C(=O)O[C@@H]([C@@H](C)[C@H]2CC[C@H]3[C@@H]4C[C@H]5O[C@]56[C@@H](O)C=CC(=O)[C@]6(CO)[C@H]4CC[C@]23C)C1 [Withalongolide B 5, withalongolide B] | 260 ± 70 | 380 ± 30 | 3.3 ± 0.48 | 0.15 to 12.7 | 1700 ± 80 | – | – | – | – | – | – | 250 ± 140 |
| CC1=C(CO)C(=O)O[C@@H]([C@@H](C)[C@H]2CC[C@H]3[C@@H]4C[C@H]5O[C@]56[C@@H](O)[C@@H](O)CC(=O)[C@]6(C)[C@H]4CC[C@]23C)C1 [viscosalactone B 3, viscosalactone B] | > 20000 | > 20000 | > 20 | – | > 20000 | inactive | – | – | – | – | – | > 20000 |
